Measurements from ChEMBL document CHEMBL5252612, “A novel selective estrogen receptor degrader induces cell cycle arrest in breast cancer via ERα degradation and the autophagy-lysosome pathway” (Bioorg Med Chem, 2023).
Activity calls are given as the source filed them. No cut-off for these calls is given here.

How the values were obtained:
MCF7 = assay: Antitumor activity against human MCF7 cells xenografted in BALB/c nude mouse assessed as reduction in tumor volume at 4 mg/kg, ip administered every other day by caliper analysis; assay type: functional, organism-based
T47D [1] = assay: Induction of autophagy in human T47D cells assessed as increase in lysosome number by LysoTracker dye based confocal microscopy; assay type: functional, cell-based
T47D [2] = assay: Induction of autophagy in human T47D cells assessed as increase in LC3 protein expression by western blot analysis; assay type: functional, cell-based
T47D [3] = assay: Induction of autophagy in human T47D cells assessed as increase in autophagosome number by measuring LC3 puncta formation by immunofluorescence assay; assay type: functional, cell-based
T47D [4] = assay: Induction of autophagy in human T47D cells assessed as downregulation of MYC protein expression incubated for 24 hrs by western blot analysis; assay type: functional, cell-based; conditions: dose 1-5 µM
[5] = Anticancer activity against ER-alpha positive human LCC2 cells assessed as reduction in cell viability measured after 48 hrs by CCK8 assay; assay type: functional, cell-based; conditions: lcc2

| SMILES | Activity (MCF7) | Activity (T47D [1]) | Activity (T47D [2]) | Activity (T47D [3]) | Activity (T47D [4]) | IC50 [5] |
| --- | --- | --- | --- | --- | --- | --- |
| C[C@]12CC[C@@H]3c4ccc(O)cc4C[C@@H](CCCCCCCCC[S+]([O-])CCCC(F)(F)C(F)(F)F)[C@H]3[C@@H]1CC[C@@H]2O (some centres undefined) | Active | Active | Active | Active | – | – |
| CO[C@H]1C[C@@H]2CC[C@@H](C)[C@@](O)(O2)C(=O)C(=O)N2CCCC[C@H]2C(=O)O[C@H]([C@H](C)C[C@@H]2CC[C@@H](O)[C@H](OC)C2)CC(=O)[C@H](C)/C=C(\C)[C@@H](O)[C@@H](OC)C(=O)[C@H](C)C[C@H](C)/C=C/C=C/C=C/1C | – | – | – | – | Dose-Dependent Effect | – |
| CC/C(=C(\c1ccccc1)c1ccc(OCCN(C)C)cc1)c1ccccc1 [TAMOXIFEN] | – | Active | Active | Active | – | Not Active |
